# Laboratory results as given in US20170327786A1 (Biogen MA Inc., priority 2014, published 2017).
# Read-outs that look alike come from different tables or passages of the source.
# Key:
# [1] = test system: Cell Line B
# Protocol: Cell Line B expressed the polypeptide Lingo. […] Feed medium was added daily from Day 1 to Day 15 to the cell culture. […] Initial cell density was one million cells (1e6).
# [2] = test system: Cell Line A
# Protocol: Cell Line A expressed the polypeptide Neublastin. […] Feed medium was added daily from Day 2 to Day 12 to the cell culture. […] Initial cell density was one million cells (1e6).
# [3] = test system: Cell Line B; remark: listed apart in the source
# [4] = test system: Cell Line B; experiment: Alternative antioxidants as replacement for hypotaurine, Cell Line B waste accumulation and culture performance; assay type: cell-based
# Protocol: Taurine is the by-product of hypotaurine metabolism. Therefore, cell culture performance when 8 mM taurine was added to the feed medium was compared to cell culture performance when 8 mM of hypotaurine was added to the feed medium. Initial cell density was one million cells (1e6).
# Cysteamine is a precursor of hypotaurine. […] Initial cell density was one million cells (1e6). The effects of glutathione, another type of antioxidant, were also explored.
# [5] = test system: CHO cells; experiment: Fed-batch culture of CHO cells with GABA-supplemented feed medium; assay type: cell-based, Chinese hamster
# Protocol: The impact of gamma-aminobutyric acid (GABA) levels in the culture on cell density (growth), viability, and lactate concentration was evaluated in CHO cells in a fed-batch process (FIG. 9).
# Cryopreserved CHO cells were thawed and maintained in 500 mL, 1000 mL or 3000 mL shake flasks with 100 mL, 200 mL or 1000 mL working volumes using cell culture medium CM3 and were passaged every 2 to 4 days. For maintenance cultures, the incubator was controlled at 36° C. and 5% CO2. A 5 liter (L) glass Applikon vessels using Finesse TruBio DV controllers (Finesse Solutions, San Jose, Calif.) were used for the fed-batch process. Bioreactors were seeded with an initial working volume of 2.5 L at a constant seed. For the control process, feed medium, CF2b, was given on day 3, day 5 and daily thereafter (starting on day 6) until the day before harvest and culture termination. The control process lasted 15 days with harvest and culture termination on day 15. CF2b is designated as a complete feed, comprised of all necessary nutritional elements including glucose, amino acids, vitamins, and metals. For GABA culture, feed medium was supplemented with 8 mM of GABA. The GABA culture lasted 17 days with harvest and culture termination on day 17. The complete feed amount was calculated as a predetermined fixed percentage based on culture volume. Glucose is maintained by the feeding strategy above 2 g/L in general by the bolus feeds and is not limiting. Culture temperature was set at 35° C. and medium pH was controlled at 7.1±0.2 by the addition of either 1 M sodium carbonate or CO2 gas. Dissolved oxygen (DO) was maintained at 30% with air sparge, enriched with oxygen as necessary, through a drilled hole sparger. Agitation was maintained between 200 and 400 rpm throughout the culture to limit total gas flow. An air overlay was maintained between 0.005 and 0.02 gas volume flow per unit of liquid volume per minute (vvm).
# [6] = test system: Cell Line B; experiment: Fed-batch culture of Cell Line B with hypotaurine feed medium; assay type: cell-based
# Protocol: The control feed medium contained 0 mM hypotaurine. The hypotaurine feed medium contained 8 mM hypotaurine. […] The concentration of hypotaurine in the bioreactor on Day 16 was approximately 2.7 mM. […] Initial cell density was one million cells (1e6). The effects of hypotaurine were evident starting on Day 10.
# [7] = 18 mM choline chloride feed medium vs control feed with 3 mM choline chloride
# [8] = 9 mM choline chloride feed medium vs control feed with 3 mM choline chloride
# [9] = feed medium supplemented with 8 mM GABA vs control
# [10] = 8 mM hypotaurine feed medium vs control feed with 0 mM hypotaurine
smiles,measurement,setting,value
"C[N+](C)(C)CCO.[Cl-] [Choline, choline chloride]",day from which the effects were evident,[1]; 18 mM choline chloride feed medium,9 days
same,ammonium accumulation,[1]; [7],lower
same,viability,[1]; [7],higher
same,titer,"[1]; 18 mM choline chloride feed medium vs control feed with 3 mM choline chloride, Lingo",slightly higher
same,growth (cell density),"[1]; 18 mM choline chloride feed medium vs control feed with 3 mM choline chloride, fed daily Day 1 to Day 15",higher
same,Day 9 (Effective) Choline Conc.,"[1]; choline used alone, concentration in culture on Day 9, when effects became evident",4.65 mM
same,day from which the effects were evident,[2]; 9 mM choline chloride feed medium,3 days
same,ammonium accumulation,[2]; [8],lower
same,viability,[2]; [8],higher
same,titer,"[2]; 9 mM choline chloride feed medium vs control feed with 3 mM choline chloride, Neublastin",higher
same,growth (cell density),"[2]; 9 mM choline chloride feed medium vs control feed with 3 mM choline chloride, fed daily Day 2 to Day 12",higher
same,Day 3 (Effective) Choline Conc.,"[2]; concentration in culture on Day 3, when effects became evident",0.90 mM
same,Effective Choline Conc.,"[3]; Day 6, high seed",4.0 mM
same,culture viability crash,"[3]; high seed 8×10^6 vc/mL, after day 12",occurred after day 12
"NCCS [Cysteamine, cysteamine]","cell culture performance (growth, viability, ammonium concentration, titer) as replacement for hypotaurine",[4]; 3 mM cysteamine/18 mM choline chloride in feed vs 8 mM hypotaurine and 18 mM choline chloride,not able to serve as replacements for hypotaurine
"NCCCC(=O)O [GABA, Gamma-Aminobutyric Acid]",growth (viable cell density),[5]; feed medium CF2b supplemented with 8 mM GABA vs unsupplemented control feed,higher
same,delay of the onset of a high lactate phenotype compared to control,[5]; feed medium supplemented with 8 mM GABA,about 2 days
same,lactate accumulation,[5]; [9],lower
same,viability,[5]; [9],higher
same,culture duration (harvest and culture termination),"[5]; feed medium supplemented with 8 mM GABA, control process lasted 15 days",17 days
"NCCS(=O)O [Hypotaurine, hypotaurine]",day from which the effects were evident,[6]; 8 mM hypotaurine feed medium,10 days
same,ammonium accumulation,[6]; [10],lower
same,titer,[6]; [10],higher
same,viability,[6]; [10],higher
same,growth (cell density),"[6]; 8 mM hypotaurine feed medium vs control feed with 0 mM hypotaurine, fed daily Day 1 to Day 15",higher
same,Day 10 (Effective) Hypotaurine Conc.,"[6]; hypotaurine used alone, concentration in culture on Day 10, when effects became evident",2.5 mM
N[C@@H](CCC(=O)N[C@@H](CS)C(=O)NCC(=O)O)C(=O)O [glutathione],"cell culture performance (growth, viability, ammonium concentration, titer) as replacement for hypotaurine",[4]; 1.3 mM glutathione/18 mM choline chloride in feed vs 8 mM hypotaurine and 18 mM choline chloride,not able to serve as replacements for hypotaurine
NCCS(=O)(=O)O [taurine],"cell culture performance (growth, viability, ammonium concentration, titer) as replacement for hypotaurine",[4]; 8 mM taurine in feed medium vs 8 mM hypotaurine in feed medium,not able to serve as a replacement for hypotaurine
